Drawing on patent US10087167B2, “Benzofurans substituted with secondary benzamide as HCV inhibitors” (priority 2015, dated 2018), this text covers EC50, hepatic toxicity and sustained efficacy for 34 compounds.

One data set deals with HCV replicon. As to the kind of experiment: HCV replicon luciferase assay. It is filed as cell-based. The settings on record: Hepatitis C virus, Huh-7, 72 h. As to the method:
The cell lines used to evaluate compounds consist of a human hepatocyte derived cell line (Huh-7) that constitutively expresses a genotype 1b (Con-1) HCV replicon or a genotype 1b (Con-1) HCV replicon with an asparagine replacing the cysteine at amino acid 316, or a genotype 2a (JFH-1) replicon, containing a Renilla luciferase reporter gene. These cells were maintained in Dulbecco's modified Eagle medium (DMEM) containing 10% FBS, 100 U/mL penicillin/streptomycin and 1.0 mg/mL G418.
To evaluate compound efficacy, titrated compounds were transferred to sterile 384-well tissue culture treated plates, and the plates were seeded with HCV replicon cells (50 μL at a density of 2.4×10^3 cells/well) in DMEM containing 4% FBS (final DMSO concentration at 0.5%). After 3 days incubation at 37° C., cells were analyzed for Renilla Luciferase activity using the EnduRen substrate (Promega cat #E6485) according to the manufacturer's directions. Briefly, the EnduRen substrate was diluted in DMEM and then added to the plates to a final concentration of 7.5 μM. The plates were incubated for at least 1 h at 37° C. then read on a Viewlux Imager (PerkinElmer) using a luminescence program. The 50% effective concentration (EC50) was calculated using the four-parameter logistic formula noted above.
Compound EC50 data is expressed as A: <100 nM; B=100-1000 nM; C>1000 nM).
As a reminder, the EC50 is the concentration giving half of the maximal effect. Compound `CCN(CC)c1cc2oc(-c3ccc(F)cc3)c(C(=O)NC)c2cc1-c1cccc(C(=O)N2CC(F)(F)C2)c1` [Compound 1001] gave an EC50 of 45.4 nM. That is a double-digit nanomolar value.

For `CCNc1cc2oc(-c3ccc(F)cc3)c(C(=O)NC)c2cc1-c1cccc(C(=O)N2CCNC(C#N)C2)c1` (stereo not shown) [Compound 2001], the EC50 was in the range of 100 to 1000 nM.

As to `CCN(c1cc2oc(-c3ccc(F)cc3)c(C(=O)NC)c2cc1-c1cccc(C(=O)N2CCN(C(=O)OC(C)(C)C)C[C@@H]2C#N)c1)S(C)(=O)=O` [Compound 3001], the EC50 was less than 100 nM.

In the case of `CCN(c1cc2oc(-c3ccc(F)cc3)c(C(=O)NC)c2cc1-c1cccc(C(=O)N2CCN(C(=O)OC(C)(C)C)C[C@H]2C#N)c1)S(C)(=O)=O` [Compound 3002], the EC50 is less than 100 nM.

`CCN(c1cc2oc(-c3ccc(F)cc3)c(C(=O)NC)c2cc1-c1cccc(C(=O)N2CCN(S(C)(=O)=O)C(C#N)C2)c1)S(C)(=O)=O` (stereo not shown) [Compound 3003] displayed an EC50 of 25.2 nM. This counts as double-digit nanomolar.

The compound `CNC(=O)c1c(-c2ccc(F)cc2)oc2cc(N(CCF)S(C)(=O)=O)c(-c3cccc(C(=O)N4CCN(C(=O)C(F)(F)F)CC4)c3)cc12` [Compound 4001] returned an EC50 of more than 1000 nM.

`CNC(=O)c1c(-c2ccc(F)cc2)oc2cc(N(CCF)S(C)(=O)=O)c(-c3cccc(C(=O)N4CCN(C5CC5)CC4)c3)cc12` [Compound 4002] registered an EC50 of less than 100 nM.

In turn, `CNC(=O)c1c(-c2ccc(F)cc2)oc2cc(N(CCF)S(C)(=O)=O)c(-c3cccc(C(=O)N4CCN(c5ncccn5)CC4)c3)cc12` [Compound 4003] returned an EC50 of less than 100 nM.

Compound `CNC(=O)c1c(-c2ccc(F)cc2)oc2cc(N(CCF)S(C)(=O)=O)c(-c3cccc(C(=O)N4CCN(C(=O)N5CCOCC5)CC4)c3)cc12` [Compound 4004] showed an EC50 of 1690 nM.

`CNC(=O)c1c(-c2ccc(F)cc2)oc2cc(N(CCF)S(C)(=O)=O)c(-c3cccc(C(=O)N4CCN(C(=O)OC(C)(C)C)CC4CC(=O)OC)c3)cc12` (stereo not shown) [Compound 4005]: the EC50 is less than 100 nM.

On to `CNC(=O)c1c(-c2ccc(F)cc2)oc2cc(N(CCF)S(C)(=O)=O)c(-c3cccc(C(=O)N4CCN(/C(=N/C#N)c5ccccc5)CC4)c3)cc12` [Compound 4006], for which the EC50 lay in the range of 100 to 1000 nM.

`CNC(=O)c1c(-c2ccc(F)cc2)oc2cc(N(CCF)S(C)(=O)=O)c(-c3cccc(C(=O)N4CCN(C(=C(C#N)C#N)c5ccccc5)CC4)c3)cc12` [Compound 4007] registered an EC50 of less than 100 nM.

`CNC(=O)c1c(-c2ccc(F)cc2)oc2cc(N(CCF)S(C)(=O)=O)c(-c3cccc(C(=O)N4CCN(c5nnnn5-c5ccccc5)CC4)c3)cc12` [Compound 4008] came in with an EC50 of 107 nM.

The compound `CNC(=O)c1c(-c2ccc(F)cc2)oc2cc(N(CCF)S(C)(=O)=O)c(-c3cccc(C(=O)N4CCN(c5nnnn5-c5ccccc5)C[C@@H]4C)c3)cc12` [Compound 4009] had an EC50 of less than 100 nM.

For `CNC(=O)c1c(-c2ccc(F)cc2)oc2cc(N(CCF)S(C)(=O)=O)c(-c3cccc(C(=O)N4CCN(c5nnnn5-c5ccccc5)[C@H](C)C4)c3)cc12` [Compound 4010], the EC50 was less than 100 nM.

With `CNC(=O)c1c(-c2ccc(F)cc2)oc2cc(N(CCF)S(C)(=O)=O)c(-c3cccc(C(=O)N4CCC(=C(c5ccccc5)c5ccccc5)CC4)c3)cc12` [Compound 4011], the EC50 is less than 100 nM.

`CNC(=O)c1c(-c2ccc(F)cc2)oc2cc(N(CCF)S(C)(=O)=O)c(-c3cccc(C(=O)N4CCC(=C(c5ccccc5)c5nnc(C)o5)CC4)c3)cc12` [Compound 4012] displayed an EC50 of 27.1 nM.

`CNC(=O)c1c(-c2ccc(F)cc2)oc2cc(N(CCF)S(C)(=O)=O)c(-c3cccc(C(=O)N4CCC(=C(C#N)c5ccccc5)CC4)c3)cc12` [Compound 4013] yielded an EC50 of less than 100 nM.

Take `CNC(=O)c1c(-c2ccc(F)cc2)oc2cc(N(CCF)S(C)(=O)=O)c(-c3cccc(C(=O)N4CCC(=C(C#N)c5ccccn5)CC4)c3)cc12` [Compound 4014]: the EC50 is less than 100 nM.

Compound `CNC(=O)c1c(-c2ccc(F)cc2)oc2cc(N(CCF)S(C)(=O)=O)c(-c3cccc(C(=O)N4CCCC4C(F)(F)F)c3)cc12` (stereo not shown) [Compound 4015] registered an EC50 of less than 100 nM.

`CNC(=O)c1c(-c2ccc(F)cc2)oc2cc(N(CCF)S(C)(=O)=O)c(-c3cccc(C(=O)N4CCCC4c4ccc(N(C)C)cc4)c3)cc12` (stereo not shown) [Compound 4016]: the EC50 turned out to be 84.8 nM.

Take `CNC(=O)c1c(-c2ccc(F)cc2)oc2cc(N(CCF)S(C)(=O)=O)c(-c3cccc(C(=O)N4CCC[C@@H]4C(N)=O)c3)cc12` [Compound 4017]: the EC50 is more than 1000 nM.

With `CNC(=O)c1c(-c2ccc(F)cc2)oc2cc(N(CCF)S(C)(=O)=O)c(-c3cccc(C(=O)N4CC(O)C[C@H]4C(=O)OCc4ccccc4)c3)cc12` (stereo partly shown) [Compound 4018], the EC50 lay within 100 to 1000 nM.

The compound `CNC(=O)c1c(-c2ccc(F)cc2)oc2cc(N(CCF)S(C)(=O)=O)c(-c3cccc(C(=O)N4CC(F)(F)C[C@H]4C(N)=O)c3)cc12` [Compound 4019] registered an EC50 of more than 1000 nM.

In turn, `CNC(=O)c1c(-c2ccc(F)cc2)oc2cc(N(CCF)S(C)(=O)=O)c(-c3cccc(C(=O)N4CC[C@H](F)C4)c3)cc12` [Compound 4020] returned an EC50 of 45 nM.

For the compound `CNC(=O)c1c(-c2ccc(F)cc2)oc2cc(N(CCF)S(C)(=O)=O)c(-c3cccc(C(=O)N4CC[C@@H](C#N)C4)c3)cc12` [Compound 4021], the half-maximal effective concentration (EC50) is more than 1000 nM.

In the case of `CNC(=O)c1c(-c2ccc(F)cc2)oc2cc(N(CCF)S(C)(=O)=O)c(-c3cccc(C(=O)N4CCC(NC(=O)OC(C)(C)C)(C(F)(F)F)C4)c3)cc12` (stereo not shown) [Compound 4022], the EC50 is less than 100 nM.

For the compound `CNC(=O)c1c(-c2ccc(F)cc2)oc2cc(N(CCF)S(C)(=O)=O)c(-c3cccc(C(=O)N4CCCC4c4nccs4)c3)cc12` (stereo not shown) [Compound 4023], the EC50 was less than 100 nM.

`CNC(=O)c1c(-c2ccc(F)cc2)oc2cc(N(CCF)S(C)(=O)=O)c(-c3cccc(C(=O)N4CC[C@@H](F)C4)c3)cc12` [Compound 4024]: the EC50 is 76.5 nM.

Take `CNC(=O)c1c(-c2ccc(F)cc2)oc2cc(N(CCF)S(C)(=O)=O)c(-c3cccc(C(=O)N4CC(F)(F)C(F)(F)C4)c3)cc12` [Compound 4025]: the EC50 was less than 100 nM.

The compound `CNC(=O)c1c(-c2ccc(F)cc2)oc2cc(N(CCF)S(C)(=O)=O)c(-c3cccc(C(=O)N4CCNC(=O)C45CCCC5)c3)cc12` [Compound 4026] returned a concentration giving a half-maximal response (EC50) of less than 100 nM.

Take `CCOC(=O)CC1C(=O)NCCN1C(=O)c1cccc(-c2cc3c(C(=O)NC)c(-c4ccc(F)cc4)oc3cc2N(CCF)S(C)(=O)=O)c1` (stereo not shown) [Compound 4027]: the EC50 is more than 1000 nM.

A further data set deals with HCV.
Assay: not given
The settings on record: extended dosing of the combination regimens; cited from earlier work.
As to `CNC(=O)c1c(-c2ccc(F)cc2)oc2cc(N(CCO)S(C)(=O)=O)c(C3CC3)cc12` [HCV-796], the hepatic toxicity result was “hepatic toxicity observed”.

Another data set deals with HCV.
Assay: not given
The settings on record: combination therapy; cited from earlier work.
Regarding alpha-interferon and ribavirin, the sustained efficacy was 40 % of patients.
